Test system: 5-Lipoxygenase
Assay: ARBL whole cell 5-lipoxygenase assay (inhibition of LTB4 formation in RBL-1 cells, RIA)
Type: cell-based, rat
Conditions: calcium ionophore A23187 (5 μM)
From the text: ARBL/ARBC Whole Cell 5-Lipoxygenase and Cyclcoxygenase Assays
Cells are harvested by centrifugation.

## FC(F)(F)c1cccc(Nc2ccccc2-c2n[nH]c(=S)[nH]2)c1 [Example 4, 5-[2-[(3-trifluoromethylphenyl)amino]phenyl]-2,4-dihydro-3H-1,2,4-triazole-3-thione]
  ARBL: % inhibition of LTB4 at 16 μM: N (Less than 40% inhibiton)

Reference: patent US4962119A, “Triazole derivatives of fenamates as antiinflammatory agents” (Warner-Lambert Company, priority 1989, dated 1990)
